Measurements from PMC11184611, “Development of Nontoxic Peptides for Lipopolysaccharide Neutralization and Sepsis Treatment” (ACS Pharmacology & Translational Science, 2024).
Read-outs that look alike come from different tables or passages of the source. No end group written: not given here.

Experiments:
[1] = tested on: E. coli (ATCC 25922); assay type: cell-based
Protocol: (§1) The antibacterial activity of the peptides was examined in sterile 96-well plates (Nunc 96-well microtiter plates) in a final volume of 100 μL, as follows. Aliquots (50 μL) of a suspension containing bacteria at a concentration of 10^6 colony-forming units/mL in culture medium (LB medium) were added to 50 μL of peptide serially diluted in culture medium (100–0.78 μM). Inhibition of growth was determined by the eye after an incubation of 18–20 h at 37 °C. Antibacterial activities were expressed as the minimal inhibitory concentration (MIC), the concentration at which 100% inhibition of growth was observed after 18–20 h of incubation. In these experiments, we have tested the effect of the peptides on E. coli (ATCC 25922) and Staphylococcus aureus (ATCC 6538P) as representatives of both Gram-negative and Gram-positive bacteria, respectively.

[2] = tested on: S. aureus (ATCC 6538P); assay type: cell-based, Staphylococcus aureus
Protocol: as §1

[3] = tested on: RAW264.7 murine macrophages; assay type: cell-based
Protocol: All in vitro assays were performed on RAW264.7 murine macrophages (ATCC TIB-71). Cells were grown in Dulbecco’s modified eagle medium (DMEM) supplemented with 10% fetal bovine serum (FBS), L-glutamine, sodium pyruvate, nonessential amino acids, and antibiotics (Biological Industries, Beit Haemek, Israel). The incubator was set on 37 °C with a humidified atmosphere containing 5% CO2.
One ×10^4 cells per well were grown overnight on a 96-well plate at 37 °C with a humidified atmosphere containing 5% CO2. The following day, the media were replaced with 90 μL fresh culture medium and 10 μL solution buffer containing different concentrations of the different peptides. Peptides were serially diluted in culture medium to concentration ranging from 100 to 0.78 μM. The cells were then incubated for 2 h before adding to each well 50 μL of […] (XTT) reaction solution (Biological Industries). Cell viability was determined as described previously.[52],[54] The LC50 (the concentration at which 50% of the cells die) for each peptide was obtained from the dose-dependent cell viability curves.

[4] = tested on: C57BL/6 mice; experiment: In vivo toxicity, i.p. injection; details: 100 mg/kg i.p. in 400 μL saline, highest dose tested, female C57BL/6 mice, n = 2, observed 7 days
Protocol: Toxicity was tested by i.p. injection of K2(AL)8K2 (100 mg/kg in 400 μL saline) in female C57BL/6 mice (n = 2). Mice were continuously observed for 1 h immediately following injection and once per day for 7 days. To examine the effect of our peptide on acute septic shock driven by LPS hyper-activation of TLR4, we have used murine models as described before.[55],[56] Briefly, 12 weeks old C57BL/6 female mice were treated with 100 ng of LPS injected i.p. in a saline solution (200 μL, pH 6.5) containing 200 mg/mL of D-galactosamine (Calbiochem). Treated mice received one i.p. injection of 10 mg/kg peptide dissolved in saline (200 μL) followed by an injection of LPS. In the second model, heat-killed bacteria were used to induce a lethal septic shock. E. coli cells were grown to a mid-log phase (optical density = 0.5) at 37 °C, cooled on ice, and centrifuged at 1200g for 10 min at 4 °C. The cells were resuspended in saline for a concentration of 2 × 10^9 cells in 200 μL and heated at 95 °C for 30 min. Each animal received an i.p. injection of 2 × 10^9 cells in 200 μL saline followed by an injection of 10 mg/kg peptide dissolved in saline (200 μL). Animals were monitored for survival and signs of sepsis for the next 14 days after LPS injection. For LPS-driven septic shock, n = 8. For heat-killed bacteria, n = 11. […]

[5] = XTT, cells incubated 2 h with peptide, 100 to 0.78 μM
[6] = 100% inhibition of growth, by eye, after 18–20 h at 37 °C, LB medium, peptide 100–0.78 μM

Substance | MIC E. coli (ATCC 25922) ([1]; ATCC 25922) [µM] | MIC S. aureus (ATCC 6538P) [2] [µM] | toxicity to macrophages [3] | LC50 macrophages RAW 264.7 ([3]; 2 h) [µM] | cytotoxicity ([3]; RAW264.7) | LC50 macrophages RAW 264.7 [3, 5] [µM] | toxicity to macrophages ([3]; summary table, yes/no) | toxicity in vivo [4] | MIC E. coli (ATCC 25922) [1, 6] [µM] | MIC S. aureus (ATCC 6538P) [2, 6] [µM]
ALALALALALALALALALKK-NH2 [(AL)9K2] | >100 | >100 | no | >100 | – | – | – | – | – | –
KALALALALALALALALALK-NH2 [K(AL)9K] | >100 | >100 | no | >100 | – | – | – | – | – | –
KALALALKALALKALALALK-NH2 [K(AL)3K(AL)2K(AL)3K] | 25 | 12.5 | – | – | moderate toxicity | 25 | yes | – | – | –
KKALALALALALAKK-NH2 [K2(AL)5AK2] | >100 | >100 | no | >100 | – | – | – | – | – | –
KKALALALALALALALALKK-NH2 [K2(AL)8K2] | >100 | >100 | no | >100 | – | – | – | no lasting adverse effects were observed | – | –
KKALALALKK-NH2 [K2(AL)3K2] | >100 | >100 | no | >100 | – | – | – | – | – | –
KKAVAVAVAVAVAVAVAVKK-NH2 [K2(AV)8K2] | >100 | >100 | – | 90 | – | – | – | – | – | –
LALALALALALALALALALK-NH2 [L(AL)9K] | – | – | – | – | – | >100 | no | – | >100 | >100
